Measured values from BindingDB's records for PubMed 39655996 (AstraZeneca).

Target: Poly [ADP-ribose] polymerase 2 (Homo sapiens, UniProt Q9UGN5)
Test: Inhibition of N-terminal 6His-tagged full-length recombinant human PARP2 by fluorescence anisotropy assay

Chain of Poly [ADP-ribose] polymerase 2 (Q9UGN5 whole entry): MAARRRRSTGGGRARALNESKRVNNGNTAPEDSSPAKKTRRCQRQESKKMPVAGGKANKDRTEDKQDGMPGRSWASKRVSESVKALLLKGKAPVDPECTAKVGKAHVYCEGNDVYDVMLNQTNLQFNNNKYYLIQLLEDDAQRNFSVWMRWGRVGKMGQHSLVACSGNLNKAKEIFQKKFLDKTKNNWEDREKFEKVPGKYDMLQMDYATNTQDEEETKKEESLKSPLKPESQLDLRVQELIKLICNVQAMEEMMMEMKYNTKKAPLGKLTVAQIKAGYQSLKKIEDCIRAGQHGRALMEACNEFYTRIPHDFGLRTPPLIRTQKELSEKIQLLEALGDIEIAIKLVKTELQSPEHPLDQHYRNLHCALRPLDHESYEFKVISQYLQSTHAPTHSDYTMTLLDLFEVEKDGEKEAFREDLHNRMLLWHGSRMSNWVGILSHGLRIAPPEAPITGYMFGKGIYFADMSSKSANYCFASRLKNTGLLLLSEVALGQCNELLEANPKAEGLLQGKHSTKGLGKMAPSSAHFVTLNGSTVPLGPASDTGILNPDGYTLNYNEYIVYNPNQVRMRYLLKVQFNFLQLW

- IC50: > 100 µM
SMILES: CNC(=O)c1ccc(N2CCN(Cc3ccc4nc(C)c(=O)[nH]c4c3F)CC2)c(C)n1 [5-[4-[(5-fluoro-2-methyl-3-oxo-4H-quinoxalin-6-yl)methyl]piperazin-1-yl]-N,6-dimethyl-pyridine-2-carboxamide]
